Test results reported in ChEMBL document CHEMBL6074689 (Eur J Med Chem, 2025).
Activity calls are given as the source filed them. The calls are words filed in the database; no cut-off is given here.

How the values were obtained:
[1] = target: Cholinesterase (Equus caballus) (UniProt P81908); assay: Reversible binding affinity to equine serum BChE using acetylthiocholine iodide as substrate assessed as equilibrium binding constant preincubated for 40 mins by DTNB reagent based Ellman's method
Mus musculus [2] = assay: Antialzheimer activity in scopolamine-induced Swiss albino mouse model assessed as reduction in BChE level at 0.3 to 0.5 mg/kg, po preincubated with compound for 30 mins followed by scopolamine induction and measured after 30 mins; format: functional, organism-based; conditions: dose 0.3-0.5 mg/kg, time 1.0 hrs
[3] = Acute toxicity in Swiss albino mouse assessed as animal survival at 175 mg/kg, po administered for 14 days; format: organism-based; conditions: in vivo, 336 h, time 14 day
Drosophila melanogaster [4] = assay: Anti-alzheimer activity in ey-GAL4 driven UAS-amyloid beta (1 to 42) induced Drosophila melanogaster Oregon R-positive assessed as rescued eye phenotype at 10 uM by Stereo zoom microscopic imaging analysis relative to control; format: functional
[5] = Acute toxicity in Swiss albino mouse assessed as abnormal behavior at 175 mg/kg, po administered for 14 days; format: organism-based; conditions: in vivo, 336 h, time 14 day
[6] = target: Amyloid-beta precursor protein (Homo sapiens) (UniProt P05067); assay: Inhibition of amyloid beta (1 to 42) (unknown origin) self induced aggregation at 1.521 uM incubated for 72 hrs by transmission electron microscopic analysis
Drosophila melanogaster [7] = assay: Inhibition of oxidative stress in y-GAL4 driven UAS-amyloid beta (1 to 42) induced Drosophila melanogaster Oregon R-positive assessed as reduction in ROS level at 10 to 20 uM incubated for 30 mins by H2DCFDA staining based analysis; format: functional, organism-based; conditions: dose 10-20 µM
Drosophila melanogaster [8] = assay: Anti-alzheimer activity in ey-GAL4 driven UAS-amyloid beta (1 to 42) induced Drosophila melanogaster Oregon R-positive assessed as severe eye phenotype at 100 uM by Stereo zoom microscopic imaging analysis relative to control; format: functional
Acetylcholinesterase [9] = target: T1, Acetylcholinesterase (Homo sapiens, UniProt P22303); assay: Reversible binding affinity to human AChE using acetylthiocholine iodide as substrate assessed as binding constant preincubated for 40 mins by DTNB reagent based Ellman's method
Drosophila melanogaster [10] = assay: Anti-alzheimer activity in ey-GAL4 driven UAS-amyloid beta (1 to 42) induced Drosophila melanogaster Oregon R-positive assessed as severe eye phenotype at 10 uM by Stereo zoom microscopic imaging analysis relative to control; format: functional
[11] = Toxicity in Drosophila melanogaster Oregon R-positive assessed as reduction in eclosed flies at 20 uM measured for 15 days relative to control; set-up: scale not given: the % may be the effect or the level left; conditions: 360 h, time 15 day
Mus musculus [12] = assay: Neuroprotective activity against scopolamine-induced Swiss albino mouse model assessed as upregulation of MMP9 mRNA level at 0.3 to 0.5 mg/kg, po measured after 6 days by RT-PCR analysis; format: functional, organism-based; conditions: dose 0.3-0.5 mg/kg, time 6.0 day
Mus musculus [13] = assay: Antioxidant activity against scopolamine-induced Swiss albino mouse model assessed as increase in SOD level at 0.3 to 0.5 mg/kg, po by absorbance based analysis; format: functional, organism-based; conditions: dose 0.3-0.5 mg/kg
[14] = Toxicity in Drosophila melanogaster Oregon R-positive assessed as reduction in eclosed flies at 10 uM measured for 15 days relative to control; set-up: scale not given: the % may be the effect or the level left; conditions: 360 h, time 15 day
Mus musculus [15] = assay: Neuroprotective activity against scopolamine-induced Swiss albino mouse model assessed as effect on PSD95 mRNA level at 0.3 to 0.5 mg/kg, po measured after 6 days by RT-PCR analysis; format: functional, organism-based; conditions: dose 0.3-0.5 mg/kg, time 6.0 day
PC-12 [16] = assay: Induction of apoptosis in rat PC-12 cells assessed as viable cells at 5 uM incubated for 24 hrs by Annexin V/PI staining based flow cytometry analysis (reference value: 82.8%); format: functional; conditions: read-out: Activity
Drosophila melanogaster [17] = assay: Anti-alzheimer activity in ey-GAL4 driven UAS-amyloid beta (1 to 42) induced Drosophila melanogaster Oregon R-positive assessed as rescued eye phenotype at 40 uM by Stereo zoom microscopic imaging analysis relative to control; format: functional
Drosophila melanogaster [18] = assay: Anti-alzheimer activity in ey-GAL4 driven UAS-amyloid beta (1 to 42) induced Drosophila melanogaster Oregon R-positive assessed as mild eye phenotype at 10 to 20 uM by Stereo zoom microscopic imaging analysis relative to control; format: functional; conditions: dose 10-20 µM
Cholinesterase = Cholinesterase (Equus caballus, UniProt P81908); assay: Inhibition of equine serum BChE using acetylthiocholine iodide as substrate preincubated with compound for 30 mins followed by substrate addition and measured after 30 mins by DTNB reagent based Ellman's method
[19] = Acute toxicity in Swiss albino mouse assessed as tremor at 175 mg/kg, po administered for 14 days; format: organism-based; conditions: in vivo, 336 h, time 14 day
[20] = target: Amyloid-beta precursor protein (Homo sapiens) (UniProt P05067); assay: Inhibition of amyloid beta (1 to 42) (unknown origin) self induced aggregation at 1.521 uM incubated for 72 hrs by ThT fluorescence based assay
Acetylcholinesterase [21] = target: T1, Acetylcholinesterase; assay: Reversible binding affinity to human AChE using acetylthiocholine iodide as substrate assessed as equilibrium binding constant preincubated for 40 mins by DTNB reagent based Ellman's method
Mus musculus [22] = assay: Neuroprotective activity against scopolamine-induced Swiss albino mouse model assessed as upregulation of PKA mRNA level at 0.3 to 0.5 mg/kg, po measured after 6 days by RT-PCR analysis; format: functional, organism-based; conditions: dose 0.3-0.5 mg/kg, time 6.0 day
PC-12 [23] = assay: Neuroprotective activity against H2O2-induced oxidative stress in rat PC-12 cells assessed as cell viability at 1 to 20 uM preincubated with compound for 24 hrs and followed by H2O2 induction and measured after 24 hrs by MTT assay; format: functional, cell-based; conditions: dose 1-20 µM, time 48.0 hrs
[24] = Acute toxicity in Swiss albino mouse assessed as body weight gain at 175 mg/kg, po administered for 14 days; format: organism-based; conditions: in vivo, 336 h, time 14 day
PC-12 [25] = assay: Induction of apoptosis in rat PC-12 cells assessed as viable cells at 2.5 uM incubated for 24 hrs by Annexin V/PI staining based flow cytometry analysis (reference value: 82.8%); format: functional; conditions: read-out: Activity
Acetylcholinesterase [26] = target: T1, Acetylcholinesterase; assay: Displacement of propidium iodide from human AChE PAS assessed as reduction in fluorescence intensity at 0.1 uM incubated for 6 hrs by fluorescence based analysis relative to control; set-up: scale not given: the % may be the effect or the level left
[27] = Antioxidant activity assessed as DPPH radical scavenging activity at 200 uM incubated for 30 mins relative to control; format: functional
Mus musculus [28] = assay: Antialzheimer activity in scopolamine-induced Swiss albino mouse model assessed as improvement in memory retention by measuring time spent in platform quadrant at 0.3 to 0.5 mg/kg, po preincubated with compound for 30 mins followed by scopolamine induction and measured after 5 days by Morris water maze test; format: functional, organism-based; conditions: dose 0.3-0.5 mg/kg, time 7230.0 min
Acetylcholinesterase [29] = target: T1, Acetylcholinesterase; assay: Displacement of propidium iodide from human AChE PAS assessed as reduction in fluorescence intensity at 1 uM incubated for 6 hrs by fluorescence based analysis relative to control; set-up: scale not given: the % may be the effect or the level left
PC-12 [30] = assay: Cytotoxicity against rat PC-12 cells assessed as cell viability upto 20 uM measured for 24 hrs by MTT assay; format: toxicity, cell-based; conditions: pc-12, 24 h
Drosophila melanogaster [31] = assay: Anti-alzheimer activity in ey-GAL4 driven UAS-amyloid beta (1 to 42) induced Drosophila melanogaster Oregon R-positive assessed as mild eye phenotype at 10 uM by Stereo zoom microscopic imaging analysis relative to control; format: functional
Drosophila melanogaster [32] = assay: Anti-alzheimer activity in ey-GAL4 driven UAS-amyloid beta (1 to 42) induced Drosophila melanogaster Oregon R-positive assessed as mild eye phenotype at 40 uM by Stereo zoom microscopic imaging analysis relative to control; format: functional
PC-12 [33] = assay: Induction of apoptosis in rat PC-12 cells assessed as viable cells at 20 uM incubated for 24 hrs by Annexin V/PI staining based flow cytometry analysis (reference value: 82.8%); format: functional; conditions: read-out: Activity

T1 sequence (P22303 whole entry, the tested form may be a part): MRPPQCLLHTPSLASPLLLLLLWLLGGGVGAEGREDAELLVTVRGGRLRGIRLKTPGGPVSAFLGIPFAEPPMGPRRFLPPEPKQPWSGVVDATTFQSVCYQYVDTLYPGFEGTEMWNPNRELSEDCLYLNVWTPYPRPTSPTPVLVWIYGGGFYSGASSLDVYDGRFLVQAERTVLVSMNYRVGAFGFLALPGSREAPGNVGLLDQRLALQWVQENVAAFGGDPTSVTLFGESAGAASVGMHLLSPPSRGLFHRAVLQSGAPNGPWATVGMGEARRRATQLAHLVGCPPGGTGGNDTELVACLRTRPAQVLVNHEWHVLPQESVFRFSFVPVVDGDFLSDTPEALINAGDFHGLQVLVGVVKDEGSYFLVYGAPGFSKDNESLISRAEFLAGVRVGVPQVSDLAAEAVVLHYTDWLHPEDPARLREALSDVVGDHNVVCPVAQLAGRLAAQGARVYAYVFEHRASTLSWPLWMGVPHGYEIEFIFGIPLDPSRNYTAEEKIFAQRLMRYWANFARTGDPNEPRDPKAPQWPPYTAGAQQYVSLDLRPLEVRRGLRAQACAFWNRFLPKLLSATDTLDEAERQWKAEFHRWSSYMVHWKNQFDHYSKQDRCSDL
Chain of Amyloid-beta precursor protein (Homo sapiens) (P05067 whole entry, the tested form may be a part): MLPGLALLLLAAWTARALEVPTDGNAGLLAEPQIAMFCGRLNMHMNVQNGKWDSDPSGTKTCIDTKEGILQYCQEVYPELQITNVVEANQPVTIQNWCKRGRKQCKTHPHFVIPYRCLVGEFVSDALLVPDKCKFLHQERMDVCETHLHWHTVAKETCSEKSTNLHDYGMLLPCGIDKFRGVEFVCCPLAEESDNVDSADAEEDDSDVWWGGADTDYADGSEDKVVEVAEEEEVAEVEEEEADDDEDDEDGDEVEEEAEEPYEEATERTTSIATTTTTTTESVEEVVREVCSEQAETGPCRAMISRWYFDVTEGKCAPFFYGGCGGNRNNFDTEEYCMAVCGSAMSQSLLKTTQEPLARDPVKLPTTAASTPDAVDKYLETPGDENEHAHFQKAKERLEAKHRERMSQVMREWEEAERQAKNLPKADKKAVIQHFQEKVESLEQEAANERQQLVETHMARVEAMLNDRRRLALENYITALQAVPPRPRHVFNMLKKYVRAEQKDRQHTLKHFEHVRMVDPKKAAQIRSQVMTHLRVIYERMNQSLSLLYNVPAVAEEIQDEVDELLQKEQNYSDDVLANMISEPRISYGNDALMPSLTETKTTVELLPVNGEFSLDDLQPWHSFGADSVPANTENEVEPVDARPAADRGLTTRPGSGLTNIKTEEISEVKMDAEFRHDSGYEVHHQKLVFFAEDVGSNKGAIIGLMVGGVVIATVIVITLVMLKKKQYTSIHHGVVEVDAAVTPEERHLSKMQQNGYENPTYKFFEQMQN
Chain of Cholinesterase (Equus caballus) (P81908 whole entry): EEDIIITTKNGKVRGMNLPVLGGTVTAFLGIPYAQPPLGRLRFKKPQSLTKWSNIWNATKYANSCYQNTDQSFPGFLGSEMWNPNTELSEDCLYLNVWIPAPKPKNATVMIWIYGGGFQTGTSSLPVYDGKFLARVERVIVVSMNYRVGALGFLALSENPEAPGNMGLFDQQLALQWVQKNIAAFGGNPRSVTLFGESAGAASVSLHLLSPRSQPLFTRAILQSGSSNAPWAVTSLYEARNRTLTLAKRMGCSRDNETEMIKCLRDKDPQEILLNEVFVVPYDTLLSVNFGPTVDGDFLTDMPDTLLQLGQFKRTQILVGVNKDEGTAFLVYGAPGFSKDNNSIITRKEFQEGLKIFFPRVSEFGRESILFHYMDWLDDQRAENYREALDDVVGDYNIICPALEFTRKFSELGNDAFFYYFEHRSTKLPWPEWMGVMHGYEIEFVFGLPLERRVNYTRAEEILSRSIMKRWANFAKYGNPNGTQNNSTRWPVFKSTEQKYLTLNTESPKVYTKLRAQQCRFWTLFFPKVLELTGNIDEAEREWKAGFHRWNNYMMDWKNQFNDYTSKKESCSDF
Chain of Cholinesterase (P81908 whole entry): as above

In the case of C[C@@H](c1cccc(OC(=O)NCCc2c[nH]c3ccc(Cl)cc23)c1)N(C)C, the Kb [1] is reported as 0.13 nM, the Activity (Mus musculus [2]) is reported as “Active” and the Activity [3] is reported as “Non-toxic”. The Activity (Drosophila melanogaster [4]) was 43%, the Activity [5] was “Non-toxic” and the inhibition [6] was “Active”. For the same compound, the Activity (Drosophila melanogaster [7]) was “Active”, the Activity (Drosophila melanogaster [8]) was 26% and the K (Acetylcholinesterase [9]) was 0.041 min⁻¹. For the same compound, the Activity (Drosophila melanogaster [10]) was 20%, the Activity [11] was 103% and the Activity (Mus musculus [12]) was “Active”. The Activity (Mus musculus [13]) was “Active”, the Activity [14] was 108% and the Activity (Mus musculus [15]) was “Active”. The viability at 5 µM (PC-12 [16]) was 81.1%, the Activity (Drosophila melanogaster [17]) was 40% and the Activity (Drosophila melanogaster [18]) was 36%. The IC50 (Cholinesterase) was 0.79 nM, the Activity [19] was “Non-toxic” and the inhibition [20] was 100%. For the same compound, the Kb (Acetylcholinesterase [21]) was 0.196 nM, the Activity (Mus musculus [22]) was “Active” and the Activity (PC-12 [23]) was “Active”. For the same compound, the Activity [24] was “Non-toxic”, the viability at 2.5 µM (PC-12 [25]) was 72.2% and the Activity (Acetylcholinesterase [26]) was 3.56%. The Activity [27] was 38.9%, the Activity (Mus musculus [28]) was “Active” and the Activity (Acetylcholinesterase [29]) was 20.4%. For the same compound, the Activity (PC-12 [30]) was “Non-toxic”, the Activity (Drosophila melanogaster [31]) was 36% and the Activity (Drosophila melanogaster [32]) was 43%. The viability at 20 µM (PC-12 [33]) was 81.5%.
